According to ChEMBL document CHEMBL1201862, “PubChem BioAssay data set” (2004):
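Cells were grown in 96-well plates and exposed to each compound for 48 hours at five concentrations; endpoints were interpolated linearly between bracketing concentrations, or set to the highest concentration if not reached. Here, GI50 denotes the concentration required for 50% inhibition of growth.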 Active and inactive are the calls of the source. No stated cut-off is given here; in the data, active = GI50 up to about 1.1 µM and inactive = higher.

Assays:
Experiment in all cases: NCI tumour cell line growth inhibition, 48 h
DU-145 = tested on: DU-145
NCI-H522 = tested on: NCI-H522
COLO 205 = tested on: COLO 205
RXF 393 = tested on: RXF 393
CCRF-CEM = tested on: CCRF-CEM
Hs-578T = tested on: Hs-578T
MDA-N = tested on: MDA-N
786-0 = tested on: 786-0
SK-MEL-28 = tested on: SK-MEL-28
OVCAR-5 = tested on: OVCAR-5
TK-10 = tested on: TK-10
HOP-92 = tested on: HOP-92
OVCAR-3 = tested on: OVCAR-3
NCI-H226 = tested on: NCI-H226
HCT-116 = tested on: HCT-116
SF-295 = tested on: SF-295
SF-539 = tested on: SF-539
SR = tested on: SR
HT-29 = tested on: HT-29

SMILES | GI50 (DU-145) | GI50 (NCI-H522) | GI50 (COLO 205) | GI50 (RXF 393) | GI50 (CCRF-CEM) | GI50 (Hs-578T) | GI50 (MDA-N) | GI50 (786-0) | GI50 (SK-MEL-28) | GI50 (OVCAR-5) | GI50 (TK-10) | GI50 (HOP-92) | GI50 (OVCAR-3) | GI50 (NCI-H226) | GI50 (HCT-116) | GI50 (SF-295) | GI50 (SF-539) | GI50 (SR) | GI50 (HT-29)
O=C1CCc2cc(Br)ccc2O1 | > 100 µM (inactive) | 32.7 µM (inactive) | > 100 µM (inactive) | 28.2 µM (inactive) | > 100 µM (inactive) | 22.4 µM (inactive) | > 100 µM (inactive) | 29.2 µM (inactive) | > 100 µM (inactive) | > 100 µM (inactive) | 45.7 µM (inactive) | 24.9 µM (inactive) | > 100 µM (inactive) | > 100 µM (inactive) | 42 µM (inactive) | 34 µM (inactive) | 32.9 µM (inactive) | 83 µM (inactive) | > 100 µM (inactive)
Nc1nc(-c2ccccc2)c(-c2ccccc2)c(-c2nc(N)nc(-c3ccccc3)c2-c2ccccc2)n1 | > 100 µM (inactive) | 57.9 µM (inactive) | > 100 µM (inactive) | 94 µM (inactive) | – | > 100 µM (inactive) | 75.7 µM (inactive) | > 100 µM (inactive) | > 100 µM (inactive) | > 100 µM (inactive) | > 100 µM (inactive) | > 100 µM (inactive) | 83.2 µM (inactive) | > 100 µM (inactive) | > 100 µM (inactive) | 78.9 µM (inactive) | > 100 µM (inactive) | > 100 µM (inactive) | 62.1 µM (inactive)
N[C@H]1CCN(c2c(F)cc3c(=O)c(C(=O)O)cn4c3c2Oc2c-4ccc3c2ccc2ccccc23)C1 | 0.942 µM (active) | 0.498 µM (active) | 1.13 µM (inactive) | 0.255 µM (active) | – | 0.731 µM (active) | 0.767 µM (active) | 0.128 µM (active) | 2.52 µM (inactive) | 1.58 µM (inactive) | 0.408 µM (active) | 2.46 µM (inactive) | 13.1 µM (inactive) | 4.02 µM (inactive) | 0.492 µM (active) | 1.48 µM (inactive) | 1.25 µM (inactive) | 0.0532 µM (active) | 0.117 µM (active)
O=P1(c2ccccc2)C(c2ccccc2)=CC=C1c1ccccc1 | 41.8 µM (inactive) | 20 µM (inactive) | 15 µM (inactive) | 29.9 µM (inactive) | 12.3 µM (inactive) | 37.8 µM (inactive) | 10.8 µM (inactive) | 26 µM (inactive) | 58.1 µM (inactive) | 20.9 µM (inactive) | 13.2 µM (inactive) | 12.1 µM (inactive) | 12.2 µM (inactive) | 26.4 µM (inactive) | 9.25 µM (inactive) | 28.4 µM (inactive) | 59 µM (inactive) | 11.9 µM (inactive) | 10.3 µM (inactive)
Cc1cccc(-c2cc(O)c3c(C)cc(C)nc3n2)c1 | 4.32 µM (inactive) | 0.658 µM (active) | 1.04 µM (active) | 3.41 µM (inactive) | 3.45 µM (inactive) | 2.52 µM (inactive) | 0.313 µM (active) | 4.57 µM (inactive) | 13.1 µM (inactive) | 5.15 µM (inactive) | 16.1 µM (inactive) | 35.4 µM (inactive) | 1.43 µM (inactive) | 3.59 µM (inactive) | 2.04 µM (inactive) | 2.72 µM (inactive) | 2.75 µM (inactive) | 0.38 µM (active) | 2.12 µM (inactive)
Cc1sc2nc3n(c(=O)c2c1C)N=C(c1ccc(Cl)cc1)CS3 | > 100 µM (inactive) | > 100 µM (inactive) | > 100 µM (inactive) | > 100 µM (inactive) | > 100 µM (inactive) | 82.6 µM (inactive) | > 100 µM (inactive) | > 100 µM (inactive) | > 100 µM (inactive) | > 100 µM (inactive) | – | > 100 µM (inactive) | > 100 µM (inactive) | > 100 µM (inactive) | > 100 µM (inactive) | > 100 µM (inactive) | > 100 µM (inactive) | > 100 µM (inactive) | > 100 µM (inactive)
Oc1ccccc1/C=N/N1C(=S)N(c2ccccc2)C(=N\c2ccccc2)/C1=N/c1ccccc1 | 16.9 µM (inactive) | 3.89 µM (inactive) | 3.27 µM (inactive) | 5.41 µM (inactive) | > 37 µM (inactive) | 4.53 µM (inactive) | 18.5 µM (inactive) | 2.72 µM (inactive) | 26.8 µM (inactive) | 34 µM (inactive) | 8.28 µM (inactive) | 4.57 µM (inactive) | 15 µM (inactive) | 11.6 µM (inactive) | 11.6 µM (inactive) | 8.39 µM (inactive) | 4.81 µM (inactive) | 18.7 µM (inactive) | 3.63 µM (inactive)
NC(=O)NCCCC(NC(=O)OCCCCn1ccc(=O)[nH]c1=O)C(=O)O (configuration not stated) | > 100 µM (inactive) | – | > 100 µM (inactive) | > 100 µM (inactive) | > 100 µM (inactive) | > 100 µM (inactive) | > 100 µM (inactive) | > 100 µM (inactive) | > 100 µM (inactive) | > 100 µM (inactive) | > 100 µM (inactive) | > 100 µM (inactive) | > 100 µM (inactive) | > 100 µM (inactive) | > 100 µM (inactive) | > 100 µM (inactive) | > 100 µM (inactive) | > 100 µM (inactive) | > 100 µM (inactive)
O=S(=O)(O)c1ccc(/N=N/c2ccc(/N=N/c3c(O)ccc4ccccc34)cc2)cc1 | > 89.3 µM (inactive) | > 100 µM (inactive) | > 100 µM (inactive) | > 100 µM (inactive) | > 51.3 µM (inactive) | > 100 µM (inactive) | > 100 µM (inactive) | > 100 µM (inactive) | > 100 µM (inactive) | > 100 µM (inactive) | > 100 µM (inactive) | > 100 µM (inactive) | > 100 µM (inactive) | > 100 µM (inactive) | > 100 µM (inactive) | > 100 µM (inactive) | – | 4.76 µM (inactive) | > 100 µM (inactive)
CC(C)(C)c1cc(C2=NNC(c3ccccc3)C2)cc(C(C)(C)C)c1O (configuration not stated) | 15.5 µM (inactive) | 14.7 µM (inactive) | 17.5 µM (inactive) | 10.1 µM (inactive) | – | 19.1 µM (inactive) | 12.6 µM (inactive) | 14.3 µM (inactive) | 15.9 µM (inactive) | 21.1 µM (inactive) | 15.9 µM (inactive) | 14.9 µM (inactive) | 3.88 µM (inactive) | 17.2 µM (inactive) | 14.2 µM (inactive) | 16.5 µM (inactive) | 19.8 µM (inactive) | 5.58 µM (inactive) | 17.7 µM (inactive)
C=CCOc1ccc2c(C)cc(=O)oc2c1C | > 100 µM (inactive) | 29.2 µM (inactive) | 44.3 µM (inactive) | 23.1 µM (inactive) | 45.4 µM (inactive) | 26.9 µM (inactive) | 42 µM (inactive) | 84.9 µM (inactive) | > 100 µM (inactive) | > 100 µM (inactive) | – | 54.3 µM (inactive) | > 100 µM (inactive) | > 100 µM (inactive) | 40.5 µM (inactive) | 23.3 µM (inactive) | 41.2 µM (inactive) | 37.8 µM (inactive) | 59.2 µM (inactive)
